The test system of one experiment is DLD-1 BRCA2-/- cells. In words: DLD-1 BRCA2-/- cell proliferation assay (CellTiter-Glo, 10 days incubation). The experiment is classed as cell-based. The settings on record: Homo sapiens, 240 h, DLD-1 BRCA2-/- cell line, total incubation period of 10 days, read-out: DLD1 BRCA2^-/- IC50. An excerpt:
The anti-proliferative effect of the compounds on the human colorectal adenocarcinoma cell line DLD-1 BRCA2^-/- method.
• DLD-1 (purchased from ATCC, Cat. No.: CCL-221, Batch No.: 70033255); • RPMI1640 (purchased from Invitrogen, Cat. No.: 11875-085); • 0.25% Trypsin-EDTA (purchased from Invitrogen, Cat. No.: 25200-072); • Penicillin-Streptomycin solution (purchased from Hyclone, Cat. No.: SV30010); • FBS (purchased from BI, Cat. No.: 04-002-1A); • DMSO (purchased from Sigma, Cat. No.: D4540-1L); • 96-well plate (purchased from Corning, Cat. No.: CLS3903); • CellTiter-Glo reagent (purchased from Promega, Cat. No.: G7558).
The anti-proliferative effect of the compounds on a human colorectal adenocarcinoma cell line was evaluated using an ATP quantification method, wherein the measured activity correlates well with the number of viable cells. The genetically edited cell line DLD-1 BRCA2^-/- was cultured in RPMI 1640 medium (Invitrogen, 11875-085) supplemented with 10% (v/v) fetal bovine serum (BI, 04-002-1A). The cell line was cultured according to the standard instructions of the American Type Culture Collection (ATCC) and identified via short tandem repeat (STR) genotyping.
In the proliferation assay, cells were harvested and resuspended in cell culture medium. Cell density was determined using a cell counter. An appropriate volume of cell suspension was aspirated from the centrifuge tube to prepare a plating working solution (150 cells/100 µL for the DLD-1 BRCA2^-/- cell line). 100 µL of the cell suspension was seeded into each well of a 96-well plate (Corning, 3603) and incubated overnight in an incubator. The diluted test compound solutions were added to the wells. On the fourth and seventh days of compound incubation, the medium was replaced with fresh culture medium, and the compounds were re-administered, for a total incubation period of 10 days. Following incubation, the cell culture plates were removed and equilibrated to room temperature. 100 µL of CellTiter-Glo (Promega, G7558) was added to each well, and the plate was incubated at room temperature for 30 minutes. Data were read using a microplate reader (PerkinElmer, Enspire) in 96-well luminescence mode. Data analysis, curve fitting, and reporting were performed using the dose-response one-site 205 model of IDBS XL fit. Table 2: Proliferation inhibitory activity of compounds against DLD-1 BRCA2-/- cells
On the technique in general: In ATP-based viability assays light output follows the ATP content of the culture.

The subject of experiment [1] is Theta-mediated end joining (TMEJ) process in HEK293T cells. In words: TMEJ reporter assay (NanoGlo luciferase). It is filed as cell-based. As to conditions: Homo sapiens, HEK-293T, HEK293T cells electroporated with TMEJ substrate, 24 hours. The procedure: The inhibitory effect of the compounds on the Theta-mediated end joining (TMEJ) process was evaluated.
(1) HEK293T cells were cultured in DMEM supplemented with 10% heat-inactivated fetal bovine serum (FBS) and 1% penicillin-streptomycin (PS). (2) Prior to startup, the Neon transfection system was disinfected, and E2 and R buffers were equilibrated to room temperature. (3) Culture medium without antibiotics was pre-warmed. (4) Cells in the flask reaching 80-90% confluency were trypsinized, neutralized with culture medium, centrifuged, and counted. (5) For transfection using a 100 µL electroporation tip, 2 × 10^6 cells were taken, washed once with DPBS (without Mg^2+ and Ca^2+), centrifuged at 1000 rpm for 5 min, and the supernatant was discarded. The number of cells and volume may be increased as required. (6) The Neon system was set up; a Neon tube was inserted into the Neon pipette and E2 buffer was added. (7) 10 µg of TMEJ substrate was added to 100 µL of R solution; the volume may be increased as required. (8) Cells were resuspended in DNA buffer, and electroporation was initiated according to the following parameters:
(9) The cells were loaded into antibiotic-free culture medium and mixed gently. (10) Steps (8)-(9) were repeated as necessary, and cells were seeded into 384-well plates at a density of 40,000 cells/well in 40 µL of culture medium. (11) The plates were incubated in a humidified CO2 incubator at 37°C for 24 hours. (12) NanoGlo reagent was warmed to room temperature, and NanoGlo buffer was mixed with the substrate at a ratio of 50:1. (13) The cell culture plates were equilibrated at room temperature for 10 minutes. (14) 40 µL of NanoGlo substrate buffer was added to each well, followed by shaking at 300 rpm for 3 minutes protected from light. (15) Signals were read via a BMG PHERAstar FSX.

The target in another experiment is T1, Polθ ATPase (Homo sapiens, UniProt O75417).
T1 construct: purified truncated POLQ-N protein (aa 1-894, N-terminal 6-His tag); 6-His (N)
T1 sequence (O75417 1-894): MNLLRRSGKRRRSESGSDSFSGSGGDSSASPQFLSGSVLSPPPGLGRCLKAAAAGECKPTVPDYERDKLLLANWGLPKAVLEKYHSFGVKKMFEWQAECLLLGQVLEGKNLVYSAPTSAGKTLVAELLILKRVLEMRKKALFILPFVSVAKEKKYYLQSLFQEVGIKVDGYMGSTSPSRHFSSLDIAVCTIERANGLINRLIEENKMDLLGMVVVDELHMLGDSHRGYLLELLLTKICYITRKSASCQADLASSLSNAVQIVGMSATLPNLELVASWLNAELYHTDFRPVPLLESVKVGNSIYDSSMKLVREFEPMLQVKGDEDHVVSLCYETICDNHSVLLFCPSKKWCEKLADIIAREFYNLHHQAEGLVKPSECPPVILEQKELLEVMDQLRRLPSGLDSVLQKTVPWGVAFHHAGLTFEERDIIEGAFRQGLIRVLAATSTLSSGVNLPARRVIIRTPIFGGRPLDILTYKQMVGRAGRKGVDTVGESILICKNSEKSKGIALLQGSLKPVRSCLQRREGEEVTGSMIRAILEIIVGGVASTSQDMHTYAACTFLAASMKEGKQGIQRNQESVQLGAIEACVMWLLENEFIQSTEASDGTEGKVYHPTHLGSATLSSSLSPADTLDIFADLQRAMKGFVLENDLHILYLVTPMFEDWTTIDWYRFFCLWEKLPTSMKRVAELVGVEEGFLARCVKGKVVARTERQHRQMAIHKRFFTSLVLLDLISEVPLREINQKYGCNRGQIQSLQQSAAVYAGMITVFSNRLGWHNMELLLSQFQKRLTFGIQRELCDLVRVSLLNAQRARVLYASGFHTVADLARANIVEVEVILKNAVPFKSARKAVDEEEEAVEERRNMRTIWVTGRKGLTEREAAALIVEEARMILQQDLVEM
In words: Polθ ATPase activity assay (ADP-Glo Kinase Assay kit). The experiment is classed as biochemical. As to conditions: truncated POLQ-N protein (aa 1-894) 1 nM, 50 nM ssDNA, 50 µM ATP. The procedure:
The inhibitory efficiency of the compounds of formula (I) against Polθ ATPase activity was determined using the ADP-Glo Kinase Assay kit (Promega, V9101). […] The starting (final) concentration was 100 nM, followed by a 3-fold serial dilution for a total of 10 concentration points in duplicate (n=2). 5 μL of purified […], N-terminal 6-His tag) was added to each well. After centrifugation at 1000 rpm for 1 minute, the plate was incubated at 25°C for 10 minutes. 5 μL of substrate reaction solution (containing ATP & ssDNA) was added to each well, and the reaction was carried out at 25°C for 60 minutes. 5 μL of ADP-Glo Reagent was added to each well. After centrifugation at 1000 rpm for 1 minute, the plate was incubated at 25°C for 40 minutes. 10 μL of detection solution was added to each well. After centrifugation at 1000 rpm for 1 minute, the plate was incubated at 25°C for 40 minutes. Luminescence signals were recorded using a microplate reader (BMG, PHERAstar FSX). The final reaction system contained 1 nM of POLQ-N enzyme; 50 nM of ssDNA ([NT]); 50 μM of ATP; and 1% DMSO. The inhibition percentage (%) of the compound at each concentration was calculated using the RFU values normalized against the control wells within each assay plate. Table 1: Inhibitory activity of compounds against Polθ ATPase

Each structure is given as a SMILES string.

In the case of `COc1cnc(C(F)F)cc1-c1cc(C)ccc1C(=O)NS(=O)(=O)Cc1ccc([C@H](C)OC)cc1` [cpd-4, (S)-2-(2-(Difluoromethyl)-5-methoxypyridin-4-yl)-N-((4-(1-methoxyethyl)benzyl)sulfonyl)-4-methylbenzamide], the IC50 is 17 nM with DLD-1 BRCA2-/- cells, 1 nM in experiment [1], at most 2 nM on Polθ ATPase (class symbols) and 0.65 nM on Polθ ATPase (specific values).
As to `COc1ccc(C(F)F)cc1-c1cc(C)ncc1C(=O)NS(=O)(=O)Cc1ccc([C@H](C)OC)cc1` [cpd-5, (S)-4-(5-(Difluoromethyl)-2-methoxyphenyl)-N-((4-(1-methoxyethyl)benzyl)sulfonyl)-6-methylnicotinamide], the IC50 with DLD-1 BRCA2-/- cells is 27 nM; in experiment [1], 1 nM; on Polθ ATPase (class symbols), at most 2 nM; against Polθ ATPase (specific values), 0.5 nM.
Turning to `COc1cnc(C(F)F)cc1-c1cc(C)ccc1C(=O)NS(=O)(=O)Cc1ccc([C@@H](C)OC)cc1` [cpd-8, (R)-2-(2-(Difluoromethyl)-5-methoxypyridin-4-yl)-N-((4-(1-methoxyethyl)benzyl)sulfonyl)-4-methylbenzamide], the IC50 in the experiment with DLD-1 BRCA2-/- cells is 57 nM; in experiment [1] it was 2 nM; against Polθ ATPase (class symbols) it was at most 2 nM; against Polθ ATPase (specific values), 0.72 nM.
As for `COc1ccc(C(F)F)cc1-c1cc(CC(=O)N(C)C)ccc1C(=O)NS(=O)(=O)Cc1ccc(C(C)C)cc1` [cpd-11, 5'-(Difluoromethyl)-5-(2-(dimethylamino)-2-oxoethyl)-N-((4-isopropylbenzyl)sulfonyl)-2'-methoxy-[1,1'-biphenyl]-2-carboxamide], the IC50 in the experiment on DLD-1 BRCA2-/- cells is 99 nM; in experiment [1], 2 nM; on Polθ ATPase (class symbols), at most 2 nM; against Polθ ATPase (specific values), 0.53 nM.
Consider `COc1ccc(C(F)F)cc1-c1cc(Cc2nnc(C)o2)ccc1C(=O)NS(=O)(=O)Cc1ccc(C(C)C)cc1` [cpd-13, 5'-(Difluoromethyl)-N-((4-isopropylbenzyl)sulfonyl)-2'-methoxy-5-((5-methyl-1,3,4-oxadiazol-2-yl)methyl)-[1,1'-biphenyl]-2-carboxamide], for which the IC50 in the experiment with DLD-1 BRCA2-/- cells was 202 nM; against Polθ ATPase (class symbols) it was at most 2 nM; at Polθ ATPase (specific values), 0.88 nM.
As for `COc1ccc(C(F)F)cc1-c1cc(C)ccc1C(=O)NS(=O)(=O)Cc1ccc(C(OC)C(F)(F)F)cc1` (centres unmarked) [cpd-14, 5'-(Difluoromethyl)-2'-methoxy-5-methyl-N-((4-(2,2,2-trifluoro-1-methoxyethyl)benzyl)sulfonyl)-[1,1'-biphenyl]-2-carboxamide], the IC50 was 108 nM in the experiment on DLD-1 BRCA2-/- cells, at most 2 nM on Polθ ATPase (class symbols) and 1.6 nM against Polθ ATPase (specific values).
Regarding `[2H]C([2H])([2H])Oc1cnc(C(F)F)cc1-c1cc(C([2H])([2H])[2H])ccc1C(=O)NS(=O)(=O)Cc1ccc([C@H](C)OC([2H])([2H])[2H])cc1` [cpd-18, (S)-2-(2-(Difluoromethyl)-5-(methoxy-d3)pyridin-4-yl)-N-((4-(1-(methoxy-d3)ethyl)benzyl)sulfonyl)-4-(methyl-d3)benzamide], the IC50 with DLD-1 BRCA2-/- cells is 17 nM; in experiment [1], 1.3 nM; on Polθ ATPase (class symbols) it was at most 2 nM; against Polθ ATPase (specific values), 1.4 nM.
Regarding `[2H]C([2H])([2H])O[C@@H](C)c1ccc(CS(=O)(=O)NC(=O)c2ccc(C)cc2-c2cc(C(F)F)ncc2OC)cc1` [cpd-19, (S)-2-(2-(Difluoromethyl)-5-methoxypyridin-4-yl)-N-((4-(1-(methoxy-d3)ethyl)benzyl)sulfonyl)-4-methylbenzamide], the IC50 was 21 nM with DLD-1 BRCA2-/- cells, 2 nM in experiment [1], at most 2 nM at Polθ ATPase (class symbols) and 0.45 nM on Polθ ATPase (specific values).
For the molecule `[2H]C([2H])([2H])O[C@@H](C)c1ccc(CS(=O)(=O)NC(=O)c2ccc(C([2H])([2H])[2H])cc2-c2cc(C(F)F)c(F)cc2OC)cc1` [cpd-21, (S)-5'-(Difluoromethyl)-4'-fluoro-2'-methoxy-N-((4-(1-(methoxy-d3)ethyl)benzyl)sulfonyl)-5-(methyl-d3)-[1,1'-biphenyl]-2-carboxamide], the IC50 was 5.2 nM with DLD-1 BRCA2-/- cells, 2.3 nM in experiment [1], at most 2 nM on Polθ ATPase (class symbols) and 1.5 nM on Polθ ATPase (specific values).
Consider `[2H]c1c([2H])c([C@H](C)OC([2H])([2H])[2H])c([2H])c([2H])c1CS(=O)(=O)NC(=O)c1ccc(C([2H])([2H])[2H])cc1-c1cc(Cl)ncc1OC` [cpd-22, (S)-2-(2-Chloro-5-methoxypyridin-4-yl)-N-(4-(1-(methoxy-d3)ethyl)(phenyl-2,3,5,6-d4)methylsulfonyl)-4-(methyl-d3)benzamide], for which the IC50 in the experiment on DLD-1 BRCA2-/- cells was 48 nM; in experiment [1], 1.3 nM; at Polθ ATPase (class symbols), at most 2 nM; against Polθ ATPase (specific values), 1.1 nM.

Source of the values: patent EP4782434A1, “N-SULFONYL CARBOXAMIDE COMPOUND, AND PREPARATION METHOD THEREFOR AND USE THEREOF” (Nutshell Therapeutics (Shanghai) Co., Ltd., priority 2023, dated 2025).
